The subject of data set [1] is C. elegans. As to conditions: in vivo. From the text: Next, the nematodes having been grown in the nematode-encapsulated capsule were taken out, and locomotion of the nematodes was observed. As in Example 4, a hatching inhibitor-treated nematode-encapsulated capsule obtained two days after production of the capsule was transferred to a plate A1 with a tweezer, and the capsule was picked a plurality of times with a sterile toothpick, so that the inside of the capsule was exposed.

Data set [2] concerns C. elegans. Nature of the data set: Hatching inhibitor (FUdR) treatment of adult nematodes: hatching of laid eggs on culture plate and in capsule. Type of data set: in vivo, Caenorhabditis elegans. The method, then: A dose of a chemical agent required to make all eggs laid by a generation treated with the chemical agent unable to hatch varies depending on, for example, the type, the developmental stage or the sex of the nematode, a type of the chemical agent, or a treatment (exposure) time. For example, in a case where an FUdR solution is added to the culture plate and a nematode which is an adult hermaphrodite of C. elegans prior to laying eggs is exposed to the FUdR solution for a day, a sterilization dose at which the hatching rate of the next generation becomes 0% is not less than 0.5 mg/mL. Exposure of the adult nematode prior to laying eggs to the chemical agent of a dose lower than the sterilization dose allows for making adjustment so that only a certain percentage of eggs hatch.
The nematodes were cultured on the plate to which E. coli had been applied, until the nematodes became adult nematodes (before start of egg laying) on the third day after hatching. FUdR solution was added to this nematode culture plate, and the nematodes were cultured for another day. The FUdR solution was prepared by dissolving 5 mg of FUdR powder in 10 mL of sterile ultrapure water and stirring.
Adult nematodes on the fourth day after hatching which had been exposed to a hatching inhibitor for one day were collected together with E. coli from the culture plate with use of the platinum wire picker. Then, the nematodes were dropped in the aqueous sol which was the same as that prepared in Example 1, so that a sterilized adult nematode sol was prepared. Next, a micropipette was used to suck out the nematode sol. The nematode sol was then dropped in a calcium lactate solution which filled a plastic dish, and immersed in the calcium lactate solution for approximately 5 minutes. The hatching inhibitor-treated nematode-encapsulated capsule in which the adult nematodes that had been exposed to the hatching inhibitor and E. coli that would be food were encapsulated. At the end, a sterilized-nematode-encapsulated capsule was taken out from the calcium lactate solution and an outer phase membrane of this capsule was washed with ultrapure water.
An image of a spherical capsule in which approximately 10 adult nematodes on the fourth day after hatching and having undergone a hatching inhibition treatment by exposure to FUdR were encapsulated was captured from above with use of a digital camera attached to a microscope and the spherical capsule was observed, every 24 hours (every day) from immediately after the production of the spherical capsule. […] After one day and also after two days, it was possible to observe a state in which the adult nematodes moved inside the capsule. […]

In data set [3] the test system is C. elegans. Nature of the data set: Chemotaxis assay to volatile substance on nematode trap plate A3, nematodes supplied from nematode-encapsulated capsule (Example 10). It is filed as in vivo, Caenorhabditis elegans. The conditions noted are these: capsule supply, mean of two assays, FIG. 19. The protocol:
An assay for evaluating response of nematodes to a volatile substance was conducted with use of diacetyl (having a molarity of 11.5 M at 15° C.), which is a kind of volatile substance, and diluted solutions prepared by diluting the diacetyl by two different dilution factors of 10 and 10^5. Note that the assay method was a method using a nematode trap plate. […]
Next, several nematode-encapsulated capsules in which nematode eggs were encapsulated and grown to adult nematodes were each picked with a tip of a micropipette chip, so that an outer phase membrane was broken. […] Thereafter, the number of nematodes caught in the fall-in cavities was counted.
Assuming that the total number of nematodes caught in the two left fall-in cavities filled with the test solution was N1 and the total number of nematodes caught in the two right fall-in cavities filled with the control buffer solution was N2, a value obtained according to the following formula was defined as a chemotaxis index (C.I.). Then, the response was evaluated. […]

For data set [4], the system named is C. elegans. Briefly: Chemotaxis assay to volatile substance on plate A3, conventional nematode supply method (Comparative Example 2). It is filed as in vivo, Caenorhabditis elegans. The conditions noted are these: mean of three assays, FIG. 20. The method, then:
Assuming that the total number of nematodes caught in the two left fall-in cavities filled with the test solution was N1 and the total number of nematodes caught in the two right fall-in cavities filled with the control buffer solution was N2, a value obtained according to the following formula was defined as a chemotaxis index (C.I.). Then, the response was evaluated. Chemotaxis index (C. I.)=(N1−N2)/(N1+N2). As Comparative Example, evaluation of response of nematodes was carried out on the basis of a conventionally-known method for supplying nematodes. Used was a plate A3 which was identical to that used in Example 10 and in which two sets of two fall-in cavities were formed on left and right sides in symmetrical positions. A test solution was diluted solutions of diacetyl at two different concentrations as in Example 10. Note that the above dilution was conducted with use of a buffer solution, which served as a control. A nematode liquid containing nematodes having been washed in advance with wash buffer was dropped onto the center of the nematode assay plate, and a liquid component was wiped out with a paper wiper. Then, the nematodes were released on the plate. The plate was covered with a lid and sealed with a paraffin film. […] Thereafter, the number of nematodes caught in the fall-in cavities was counted.

Setting [5] is: 10-fold diluted solution of diacetyl.
The mark [6] stands for this setting: 10^5-fold diluted solution of diacetyl.

As to `O=c1[nH]c(=O)n([C@H]2C[C@H](O)[C@@H](CO)O2)cc1F` [FUdR, 5-Fluoro-2′-deoxyuridine], the “locomotion of adult nematodes escaped from capsule” value in the data set on C. elegans [1] is given as “No remarkable abnormality in locomotion was observed”. For the same molecule, the “hatching of eggs laid on culture plate to which FUdR was added” value with C. elegans [2] (FUdR solution 5 mg in 10 mL added to culture plate, adults from third day after hatching cultured another day) is listed as “the eggs did not hatch”. The “sterilization dose at which the hatching rate of the next generation becomes 0%” value with C. elegans [2] (FUdR solution added to culture plate, adult hermaphrodite of C. elegans prior to laying eggs exposed for a day) is on record as “not less than 0.5 mg/mL”. In addition, the “hatching of eggs laid in capsule by adult nematodes exposed to FUdR” value with C. elegans [2] (approximately 10 adults on fourth day after hatching, exposed one day on plate, encapsulated, observed up to two days after production) was “did not hatch, and no larvae were observed”. Besides, in the data set with C. elegans [2] (culture solution containing FUdR instead of culture plate, nematode-encapsulated capsule), the “hatching result with nematodes cultured for one day in culture solution containing FUdR” value is recorded as “a result similar to that obtained by culturing on the culture plate to which the FUdR solution was added could be obtained”.
As for `CC(=O)C(C)=O` [diacetyl], the “Chemotaxis index (C.I.)” value is “negative” in the data set on C. elegans [3] (setting [5]), “positive” with C. elegans [3] (setting [6]), “negative” in the data set on C. elegans [4] (setting [5]) and “positive” with C. elegans [4] (setting [6]).
